Read-outs that look alike come from different tables or passages of the source. Where a SMILES comes first, the peptide text is derived from it.
How the values were obtained:
Assay type in all cases: cell-based
[1] = tested on: recombinant IgG producing Chinese Hamster Ovary cell line (CHO cell line #1); assay: 24-well plate media supplement screening: peak viable cell density (CellTiter 96 AQueous)
Description: (§1) 24-well plates were utilized at a working volume of 1.5 mL per well to serve as the platform for media supplement screening. An in-house, base chemically defined media (CDM #1) was used as the basal media for the purposes of the experiments. A recombinant IgG producing Chinese Hamster Ovary cell line (CHO cell line #1) was used for the media supplement screening phase of the experiments.
All 24-well plate screening experiments were designed using JMP7 commercially available statistics software (Cary, N.C.) using custom experimental options. Six individual media supplement screening experiments were performed to test over a hundred different supplements in statistically designed experiments and in a serial fashion. All screening experiments were performed at […] cultured at 210 rpm on a shaker table in a 5% humidified CO2 incubator. Gas permeable, rayon film plate covers (VWR International, Radnor, Pa., Catalog #60941-086) were employed as necessary to provide a sterile barrier between the well plates, the plastic plate cover, and the culture atmosphere. Supplement solutions were manually pipetted into the respective plate wells using concentrated, sterile stock solutions. The comprehensive list of media supplements evaluated for cell culture process improvement is shown below in Table 2:
(§2) Two cell culture performance indicators were measured in the high-throughput screening experiments: peak viable cell density and harvest titer. Time point samples were withdrawn from each of the respective plate wells on Days 6, 7, and 8 post inoculation and measured for their respective viable cell densities spectrophotometrically via the CellTiter 96 AQueous Solution Cell Proliferation Assay Kits™ (Promega, Madison, Wis.). Harvest Titer measurements were conducted via high performance liquid chromatography (HPLC) with a Poros A™ affinity column (Applied Biosystems, Foster City, Calif.). All experimental wells supplemented with a particular combination of media compounds were compared to an unsupplemented control, with the results expressed as relative values relative to the control.
(§3) Two cell culture performance indicators were measured in the high-throughput screening experiments as well as media verification experiments; peak viable cell density (VCD) and harvest titer. […] A few days after the last cell count measurement sample the plates were centrifuged and the supernatant was collected and stored at −80° C. for future analysis. Harvest titer measurements were conducted via high performance liquid chromatography (HPLC) with a Poros A™ affinity column (Applied Biosystems, Foster City, Calif.). All experimental wells supplemented with a particular combination of media compounds were compared to an unsupplemented control, with the results expressed as values relative to the control. For the media verification experiments in larger-scale shaker and spinner flasks, viable cell density and viability were measured via Cedex automated cell counters (Roche Applied Science, Indianapolis, Ind.). Harvest titer measurements were similarly measured via HPLC.
(§4) Standard Analysis of Variance (ANOVA) was used to measure the significance of individual supplements and their respective interactions towards the resulting cell culture technique performance. Individual analyses were conducted on both peak viable cell density and harvest titer for each of the respective screening experiments. Three different levels of each media supplement were used in these experiments: unsupplemented (Level 1), lightly supplemented (Level 2), and heavily supplemented (Level 3). […] The optimization subroutine intrinsic to the statistics software was used to analyze the screening dataset determine the identity of a high performance media blend. It is important to note that the selection method is a mathematical exercise which can lead to multiple blends identified as having the highest performance parameters, and the results are highly dependent on the initial first guess.

[2] = tested on: recombinant IgG producing Chinese Hamster Ovary cell line (CHO cell line #1); assay: 24-well plate media supplement screening: harvest titer (HPLC, Poros A affinity column)
Description: as §1
All 24-well plate screening experiments were designed using JMP7 commercially available statistics software (Cary, N.C.) using custom experimental options. Six individual media supplement screening experiments were performed to test over a hundred different supplements in statistically designed experiments and in a serial fashion. […] Supplement solutions were manually pipetted into the respective plate wells using concentrated, sterile stock solutions. The comprehensive list of media supplements evaluated for cell culture process improvement is shown below in Table 2:
as §2, §3, §4
The aforementioned supplements were evaluated for improvements in cell culture technique performance.

[3] = tested on: recombinant IgG producing Chinese Hamster Ovary cell line (CHO cell line #1); assay: Supplement screening: process performance (peak VCD and/or harvest titer) by inspectional/statistical analysis
Description: as §4, with “guess. Three particular high performance blends were identified for further evaluation: […] The supplements whose relative concentrations supported a distinct pattern of either increasing or decreasing process performance were categorized into the clustered classification. […] These supplements were either compounds or groups of similar compounds such as polyamines, essential amino acids, and vitamins.” for “guess.”

[4] = tested on: recombinant IgG producing Chinese Hamster Ovary cell line (CHO cell line #1); assay: JMP7 statistical identification of high performance media supplementation from a 15-supplement screening experiment; details: for Concentration Range for Increase of Harvest Titer / Concentration Range for Increase of Peak VCD and Harvest Titer: range given, variability in culture volumes
Description: as §4
Fifteen of these supplements, or groups of supplements, were screened in a separate statistically designed experiment for the final determination of high performance media blends for the maximization of peak VCD, harvest titer, and both of these variables simultaneously.
The JMP7 statistical software program was further used to identify the high performance media supplementation for maximizing peak VCD, harvest titer, and both simultaneously.

[5] = HTS experiments, CDM #1, relative to unsupplemented control
[6] = univariate analysis of varying supplement concentrations
[7] = predicted amount for addition into the unsupplemented control media

Compound	Effect on Peak VCD [1, 5]	Effect on Harvest Titer [2, 5]	also measured
OC[C@H]1O[C@@H]2O[C@H]3[C@H](O)[C@@H](O)[C@@H](O[C@H]4[C@H](O)[C@@H](O)[C@@H](O[C@H]5[C@H](O)[C@@H](O)[C@@H](O[C@H]6[C@H](O)[C@@H](O)[C@@H](O[C@H]7[C@H](O)[C@@H](O)[C@@H](O[C@H]8[C@H](O)[C@@H](O)[C@@H](O[C@H]1[C@H](O)[C@H]2O)O[C@@H]8CO)O[C@@H]7CO)O[C@@H]6CO)O[C@@H]5CO)O[C@@H]4CO)O[C@@H]3CO [β-cyclodextrin]	Increase	Increase	Process Performance Pattern [3, 6]: Wide dispersal; Concentration Target (Range) for Increase of Harvest Titer [4, 7]: 0 g/L; Concentration Target (Range) for Increase of Peak VCD [4, 7]: +0.16 (0.14-0.18) g/L; Concentration Target (Range) for Increase of Peak VCD and Harvest Titer [4, 7]: 0 g/L
C[C@]12CCC(=O)C=C1CC[C@@H]1[C@@H]2[C@@H](O)C[C@@]2(C)[C@H]1CC[C@]2(O)C(=O)CO [Hydrocortisone, reference compound]	No change	Increase	
NCCS(=O)(=O)O [Taurine]	Decrease	Decrease	
O=P(O)(O)O [Potassium phosphate]			Effect on Peak VCD [1]: Increase; Effect on Harvest Titer [2]: Decrease; Process Performance Pattern [3]: Clustered; Concentration Target (Range) for Increase of Harvest Titer [4]: +0.09 (0.08-0.10) g/L; Concentration Target (Range) for Increase of Peak VCD [4]: +0.10 (0.09-0.12) g/L; Concentration Target (Range) for Increase of Peak VCD and Harvest Titer [4]: +0.10 (0.09-0.12) g/L
CNCC(=O)O [Sarcosine]	No change	Decrease	
NCCCCN [Putrescine]	Decrease	No change	Concentration Range for Increase of Harvest Titer [4]: ( 1.06 × 10^−4-1.36 × 10^−4) g/L; Concentration Range for Increase of Peak VCD and Harvest Titer [4]: (1.06 × 10^−4-1.36 × 10^−4) g/L
O=C(CO)[C@@H](O)[C@H](O)[C@H](O)CO [Fructose]	No change	No change	
C[N+](C)(C)CCO.[Cl-] [Choline chloride]			Effect on Peak VCD [1]: No change; Effect on Harvest Titer [2]: No change; Process Performance Pattern [3]: Wide dispersal
NC(=O)c1cccnc1 [Nicotinamide]	Decrease	No change	
O=C([O-])CC(O)(CC(=O)[O-])C(=O)[O-].[Na+].[Na+].[Na+] [Sodium citrate]	No change	No change	
O=C(O)CN(CCN(CC(=O)O)CC(=O)O)CC(=O)O [EDTA]	Increase	Decrease	
NCCCNCCCCNCCCN [Spermine, free base, Spermine]			Concentration Range for Increase of Harvest Titer [4]: (8.11 × 10^−5-1.04 × 10^−4) g/L; Concentration Range for Increase of Peak VCD and Harvest Titer [4]: (8.11 × 10^−5-1.04 × 10^−4) g/L
CCCCC/C=C\C/C=C\C/C=C\C/C=C\CCCC(=O)O [Arachidonic acid]	Decrease	Decrease	
Cl.N[C@@H](Cc1cnc[nH]1)C(=O)O.O [L-histidine*HCl*H2O]			Concentration Target (Range) for Increase of Harvest Titer [4, 7]: +0.25 (0.22-0.28) g/L; Concentration Target (Range) for Increase of Peak VCD [4, 7]: +0.21 (0.18-0.23) g/L; Concentration Target (Range) for Increase of Peak VCD and Harvest Titer [4, 7]: +0.25 (0.22-0.28) g/L
CC(=O)N[C@H]1C(O)O[C@H](CO)[C@H](O)[C@@H]1O (stereo partly shown) [GalNAc, N-acetylgalactosamine]	No change	Decrease	
Cyanocobalamin [Vitamin B-12]	No change	Decrease	
O=c1[nH]cnc2nc[nH]c12 [Hypoxanthine]			Concentration Range for Increase of Harvest Titer [4]: (6.76 × 10^−4-8.68 × 10^−4) g/L; Concentration Range for Increase of Peak VCD and Harvest Titer [4]: (6.76 × 10^−4-8.68 × 10^−4) g/L

Compound	Effect on Peak VCD [1, 5]	Effect on Harvest Titer [2, 5]	also measured
CC(=O)N[C@H]1C(O)O[C@H](CO)[C@@H](O)[C@@H]1O (stereo partly shown) [GlcNAc, N-acetylglucosamine]	Decrease	No change	
N[C@@H](CSSC[C@H](N)C(=O)O)C(=O)O [Cystine, L-cystine]	Decrease	Decrease	
Concanavalin A	Decrease	Decrease	
C[C@H](N)C(=O)N[C@@H](CCC(N)=O)C(=O)O [L-alanyl-L-glutamine] (H-Ala-Gln-OH)	Increase	No change	
NCCCCNCCCN [Spermidine, free base, Spermidine]			Concentration Range for Increase of Harvest Titer [4]: (4.22 × 10^−5-5.42 × 10^−5) g/L; Concentration Range for Increase of Peak VCD and Harvest Titer [4]: (4.22 × 10^−5-5.42 × 10^−5) g/L
NCCO [Ethanolamine]	Increase	Decrease	
Nc1ccc(C(=O)O)cc1 [PABA, Para-amino benzoic acid]	Decrease	No change	
N[C@@H](CCC(=O)N[C@@H](CS)C(=O)NCC(=O)O)C(=O)O [Glutathione, Glutathione, reduced]	Decrease	Decrease	
CC(=O)C(=O)[O-].[Na+] [Sodium pyruvate]	Decrease	No change	
OC[C@H]1O[C@H](O[C@H]2[C@H](O)[C@@H](O)C(O)O[C@@H]2CO)[C@H](O)[C@@H](O)[C@@H]1O (mixture of isomers) [Maltose]	No change	Increase	Process Performance Pattern [3, 6]: Wide dispersal
CCCCC/C=C\C/C=C\CCCCCCCC(=O)O [Linoleic acid]	No change	Increase	
Cc1cc2nc3c(=O)[nH]c(=O)nc-3n(C[C@H](O)[C@H](O)[C@H](O)CO)c2cc1C [Riboflavin]	Decrease	No change	
Cc1ncc(CO)c(CO)c1O.Cl [Vitamin B-6, Pyridoxine hydrochloride]	No change	Increase	
Nc1nc(=O)c2nc(CNc3ccc(C(=O)N[C@@H](CCC(=O)O)C(=O)O)cc3)cnc2[nH]1 [Folate]			Process Performance Pattern [3, 6]: Wide dispersal
O=C(O)CCCC[C@@H]1SC[C@@H]2NC(=O)N[C@@H]21 [Biotin]	No change	No change	
O=C[C@H](O)[C@@H](O)[C@H](O)CO [Xylose]	No change	Increase	Process Performance Pattern [3, 6]: Wide dispersal

From US9068970B2, “Efficient and effective supplement screening for the development of chemically defined media in cell culture” (Abbvie Inc., priority 2010, dated 2015)
